From patent publication US20130252983A1, “ACTIVATING PHOSPHORYLATION SITE ON GLUTAMINASE C” (CORNELL UNIVERSITY, priority 2010, published 2013)

Experiments:
[1] = target: T1, mouse GAC (E. coli-expressed mouse ortholog of human GAC) (Mus musculus, UniProt D3Z7P3); experiment: Recombinant glutaminase activity assay; type: biochemical
T1 construct: A plasmid encoding mouse GAC (residues 128-603) was cloned into the pET28a vector; His (N, cleaved yes); made in house; host or cells: E. coli (pET28a)
T1 sequence (D3Z7P3 128-603 isoform D3Z7P3-2): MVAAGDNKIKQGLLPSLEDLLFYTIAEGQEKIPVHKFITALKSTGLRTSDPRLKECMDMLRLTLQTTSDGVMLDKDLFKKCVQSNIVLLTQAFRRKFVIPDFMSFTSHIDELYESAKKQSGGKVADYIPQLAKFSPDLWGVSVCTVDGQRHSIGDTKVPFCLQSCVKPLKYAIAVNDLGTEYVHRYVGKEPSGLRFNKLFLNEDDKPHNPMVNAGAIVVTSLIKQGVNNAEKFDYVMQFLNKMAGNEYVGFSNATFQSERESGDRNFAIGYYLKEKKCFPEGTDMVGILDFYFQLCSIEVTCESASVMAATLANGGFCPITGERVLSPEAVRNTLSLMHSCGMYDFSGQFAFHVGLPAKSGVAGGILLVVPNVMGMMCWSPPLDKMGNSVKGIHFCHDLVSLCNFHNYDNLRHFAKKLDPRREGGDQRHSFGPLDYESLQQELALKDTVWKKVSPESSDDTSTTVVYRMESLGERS
Description: 100%=620 moles of glutamine hydrolyzed per minute per mole of enzyme. Data represent the average of 3 experiments (±s.d.). […] Following precipitation of the beads and re-suspension, the samples were analyzed by Western blotting with anti-V5 antibody. […] Data represent the average of 3 experiments (±s.d.). […] Data represent the average of 3 experiments (±s.d.). […] Data represent the average of 3 experiments (±s.d.). FIG. 3E NIH 3T3 cells transiently expressing Dbl were assayed for focus formation in the presence of 10 μM 968 alone or together with 7 mM dimethyl α-ketoglutarate. […] 100%=680 nM glutamine hydrolyzed per minute per 10^5 cells. Data are the average of 3 experiments (±s.d.). […] 100%=750 nM glutamine hydrolyzed per minute per 10^5 cells. Data represent the average of 3 experiments (±s.d.).
The activity of the E. coli-expressed recombinant mouse ortholog of human GAC were assayed in the presence of 0 ([…]), 10 (∇) or 20 (▪) μM 968 and inorganic phosphate in the form of dipotassium hydrogen phosphate. […] The data are plotted as GA activity as function of varying concentrations of glutamine or inorganic phosphate. The data are the average of 3 experiments and are plotted as mean±SEM.
Glutaminase activity assays were performed on recombinant enzyme as previously described (Kenny et al., “Bacterial Expression, Purification and Characterization of Rat Kidney-Type Mitochondrial Glutaminase,” Protein Expr. Purif. 31:140-148 (2003), which is hereby incorporated by reference in its entirety). A plasmid encoding mouse GAC (residues 128-603) was cloned into the pET28a vector and the protein was expressed with an N-terminal histidine (His)-tag. The tag was cleaved using thrombin and the protein was further purified by anion-exchange and gel-filtration chromatography. […] The reaction mixture was incubated at room temperature for 45 minutes and the absorbance at 340 nm was recorded for each sample against a water blank. The absorbance of the sample with just the cocktail mixture was subtracted from each reading to calculate the activity of the enzyme.

GAC phosphorylation = target: T2, GAC phosphorylation (Mus musculus, UniProt D3Z7P3); experiment: 2-D gel analysis of V5-GAC phosphorylation states from treated Dbl cells; type: cell-based; settings: 968 10 μM, 48 hours
T2 construct: expressed in transfected cells; host or cells: NIH 3T3 cells (stably expressing Dbl, or parental), transient transfection
T2 sequence (D3Z7P3 55-603 isoform D3Z7P3-2 limits assumed): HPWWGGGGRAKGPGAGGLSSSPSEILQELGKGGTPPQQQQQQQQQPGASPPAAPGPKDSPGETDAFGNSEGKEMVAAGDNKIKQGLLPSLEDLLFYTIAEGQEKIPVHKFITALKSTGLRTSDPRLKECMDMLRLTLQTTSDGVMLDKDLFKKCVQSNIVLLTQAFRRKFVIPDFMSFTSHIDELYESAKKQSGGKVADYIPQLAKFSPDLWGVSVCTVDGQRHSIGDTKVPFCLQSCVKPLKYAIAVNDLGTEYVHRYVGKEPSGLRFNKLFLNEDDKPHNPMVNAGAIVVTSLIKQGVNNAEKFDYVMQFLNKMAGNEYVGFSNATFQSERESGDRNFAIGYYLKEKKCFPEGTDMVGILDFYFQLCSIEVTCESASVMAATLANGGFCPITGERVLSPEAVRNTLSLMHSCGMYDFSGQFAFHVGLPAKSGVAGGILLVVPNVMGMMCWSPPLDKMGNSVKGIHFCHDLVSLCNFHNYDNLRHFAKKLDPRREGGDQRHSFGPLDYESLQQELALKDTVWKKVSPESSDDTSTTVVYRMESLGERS
Description: NIH 3T3 cells stably expressing the Dbl oncogene, were transiently transfected with DNA encoding a VS-tagged GAC, and then one sample was treated with 968 (10 μM) for 48 hours. The cells were then harvested and the ectopically expressed GAC was isolated by immunoprecipitation via the V5 tag. The samples were then subjected to 2-D gel analysis to separate the V5-GAC by charge and size, and the V5-tagged GAC was visualized by Western blotting using an anti-V5 antibody.
GAC runs distinctly on a 2D gel depending whether it is expressed in normal (untransformed) NIH 3T3 cells or in NIH 3T3 cells which are transformed by the Dbl oncogene. Specifically, there is one major species of GAC present in NIH 3T3 cells whereas in Dbl cells, two additional species of GAC appear which migrate with a more negative charge but at the same molecular mass as the original species (FIG. 21, first and second panels). […] Additionally, it has been shown that small molecules of the 968 family which are able to inhibit GAC in vivo do so by blocking the ability of GAC to become phosphorylated. Thus, it was of great interest to identify the amino acid(s) on GAC whose phosphorylation is causal in the activation of this enzyme.

CN(C)c1ccc(C2Nc3ccc4ccccc4c3C3=C2C(=O)CC(C)(C)C3)cc1Br (stereo not drawn) [Compound 968, 5-[3-bromo-4-(dimethylamino)phenyl]-2,2-dimethyl-2,3,5,6-tetrahydrobenzo[a]]
inhibition of enzymatic activity of purified mouse GAC [1]: inhibits the enzymatic activity | mode of inhibition ([1]; 0, 10 or 20 μM, glutamine or inorganic phosphate varied): neither competitive versus substrate (glutamine) nor inorganic phosphate | phosphorylation state of GAC (GAC phosphorylation): significant reduction of at least one phosphorylation state of GAC
